Source: patent publication US20170087188A1, “WNT INDUCED MOTILITY AND ENHANCED ENGRAFTMENT OF CELLS” (OTTAWA HOSPITAL RESEARCH INSTITUTE, priority 2014, published 2017)
Entries after “also recorded” stand apart in the source; their conditions may differ.

Test system: mouse primary myoblasts
Assay: Scratch migration assay, mouse primary myoblasts
Assay type: cell-based
Settings: primary myoblasts; MDC at 50 μm
Protocol: Cellular polarization is indicative of increased motility (de Forges et al., 2012). Scratch assays were used to test whether Wnt7a and Fzd7 polarization affect cell motility. To exclude effects on the localization of cells arising from altered rates of proliferation, cells were treated with Mitomycin-C.
Fzd7 deficient cells migrated 59% less compared to heterozygous myoblasts and expression of Fzd7-Flag in Fzd7 knockout myoblasts restored migration to normal levels (FIG. 2D). […] To investigate whether the stimulation of myoblast migration is dose dependent, different concentrations of Wnt7a and Wnt3a were tested for their effect on migration.
Following plasmid transfection or application of Wnts (R&D Systems), the cells were treated with Mitomycin-C for 2 h (50 μg/mL). Subsequently, the monolayer of cells was scraped in a straight line. The plates were then extensively washed with culture medium and incubated for 24 h before analysis. Analysis was performed using DAPI staining after matching the reference points and enumeration of DAPI-stained nuclei in the scar was performed. Unless otherwise indicated, Wnt7a and Wnt3a were used at a concentration of 100 ng/mL in scratch assays. Monodansylcadaverine (MDC, 30432, Sigma) was used in scratch assays at a concentration of 50 μm.

CN(C)c1cccc2c(S(=O)(=O)NCCCCCN)cccc12 [monodansylcadaverine, reference compound]
effect on Wnt7a mediated migration in scratch assays: prevents Wnt7a induced migration; also recorded: prevented Wnt7a mediated migration
